This is an account of results in patent US9839648B2, “Combined anti-acid-fast bacterial agent, screening method for anti-acid-fast bacterial agents, and activity inhibitor of WecA or ortholog thereof” (MICROBIAL CHEMISTRY RESEARCH FOUNDATION, priority 2013, dated 2017).

Usually IC50 stands for the concentration needed to halve the response being measured. Read a low IC50 as inhibition by little substance.

For test [1], the system named is B. subtilis CPZB-resistant strain. The test can be described thus: MIC by microbroth dilution method, CPZB-resistant strain. (In general: Broth dilution looks for growth in wells or tubes with falling amounts of substance.)
In test [2] the test system is B. subtilis 168 (parent strain). The experiment in a line: MIC by microbroth dilution method, parent strain.
Test [3] has as its system B. subtilis 168/pHYcatA. The test can be described thus: MIC by microbroth dilution method, control strain with pHYcat.
For test [4], the system named is Bacillus subtilis 168. The test can be described thus: MIC by agar dilution method (other than Mycobacteria). Format: cell-based. Particulars: Mueller-Hinton agar, 37° C., 18 hours. Background: Agar dilution tests growth on a series of plates holding different concentrations.
Test [5] relates to Staphylococcus aureus FDA209P. Described as above. It counts as cell-based.
Test [6] concerns B. subtilis 168 strain. Format: cell-based, Bacillus subtilis. Particulars: [14C(U)]glycerol, FIGS. 7A, 7C.
Test [7] relates to Ent. faecalis NCTC12203 (VRE). The experiment in a line: MIC by agar dilution method (other than Mycobacteria). Particulars: Enterococcus faecalis, 18 h.
The test system of test [8] is Escherichia coli K-12. Described as above. It counts as cell-based. The note with it: K12, Mueller-Hinton agar, 37° C., 18 hours.
Test [9] has as its system B. subtilis 168/pHYcat-mraY. The test can be described thus: MIC by microbroth dilution method, mraY highly expressing strain.
The subject of test [10] is Enterococcus faecalis JCM 5803. The test can be described thus: MIC by agar dilution method (other than Mycobacteria). Format: cell-based. Particulars: JCM5803, Mueller-Hinton agar, 37° C., 18 hours.
The target in test [11] is WecA of Mycobacterium smegmatis (Mycolicibacterium smegmatis, UniProt A0R211). The experiment in a line: biochemical.
The subject of test [12] is Bacillus subtilis PCI219. The test can be described thus: MIC by agar dilution method (other than Mycobacteria). Particulars: Mueller-Hinton agar, 37° C., 18 hours. It counts as cell-based.
Test [13] concerns Staph. aureus MRSA No. 5. The test is described as above.
Test [14] relates to Streptococcus pneumoniae S-223. The description is as above. Format: cell-based.
The subject of test [15] is B. subtilis 168/pHYcat-tagO. The experiment in a line: MIC by microbroth dilution method, tagO highly expressing strain.
For test [16], the system named is Mycobacterium bovis BCG. The experiment in a line: microbe, parasite or virus in culture. Format: cell-based. Particulars: Mycobacterium tuberculosis variant bovis BCG.
For test [17], the system named is Mycobacterium tuberculosis H37Rv. The experiment in a line: MIC by agar dilution method (Mycobacteria). Format: cell-based. Particulars: 7H10 agar, 37° C., 2 to 14 days. The method, then:
The MIC for Mycobacteria was measured by an agar dilution method.

In test [18] the target is T1, TagO (Bacillus subtilis, UniProt O34753).
T1 construct: using disruption liquids of bacterial cells of the 168/pHYcat-mraY strain and the 168/pHYcat-tagO highly expressing these enzymes; expressed in transfected cells; host or cells: Bacillus subtilis 168 carrying plasmid pHYcat-tagO; supernatant of sonicated cells
The test can be described thus: Measurement of TagO activity with disruption liquid of 168/pHYcat-tagO cells. It counts as biochemical. The note with it: compared with caprazamycin B, tunicamycin, vancomycin, levofloxacin; FIG. 9A. The method, then:
The activities of enzymes MraY and TagO were measured in the following manner using disruption liquids of bacterial cells of the 168/pHYcat-mraY strain and the 168/pHYcat-tagO highly expressing these enzymes and produced in Test Example 3-2.
As a control, tunicamycin, vancomycin and levofloxacin were tested similarly.
The bacterial cells were cultured in an LB medium until logarithmic growth phase (OD600=0.4) and then collected through centrifuging (5,000 rpm, 10 min), followed by washing twice with a TMS buffer (50 mM Tris-HCl (pH 7.5), 625 mM sucrose, 10 mM MgCl2, 5 mM 3-mercapto-1,2-propanediol, 1 mM PMSF).
Next, the precipitate was re-suspended in a TMS buffer having a volume 1/40 the initial volume, and the bacterial cells were disrupted through probe sonication (where the following procedure was repeated 10 times on ice: disrupting them for 30 sec and leaving them stand still for 30 sec). […]
The TagO activity was measured by allowing 0.02 mL of the following reaction mixture to react at 30° C. for 1 hour.
Next, the lower layer containing the reaction product was analyzed through thin-layer chromatography (TLC, using as a developing solvent chloroform:methanol:water:concentrated aqueous ammonia=65:35:4:4) and autoradiography, to thereby calculate the enzymatic activity of TagO as a rate with respect to that of the control. […]

For test [19], the system named is Str. pneumoniae CR-2. The test can be described thus: MIC by agar dilution method (other than Mycobacteria).

Converted amounts (≈) assume the structure as drawn. Some results are limits rather than exact numbers.

On to `CCCCc1ccc(NC(=O)C2=CCN(C)[C@@H]([C@H](O[C@@H]3O[C@H](CN)C(O)C3O)[C@H]3O[C@@H](n4ccc(=O)[nH]c4=O)C(O)C3O)C(=O)N2C)cc1` (stereo partly drawn) [CPZEN-45], for which the MIC in test [1] (Bacillus subtilis, 16 h) was 4 µg/mL (≈ 5.81 µM); in test [2] (Bacillus subtilis, 16 h), 4 µg/mL (≈ 5.81 µM); in [3] (Bacillus subtilis, 168/PHYCATA) it was 8 µg/mL (≈ 11.6 µM); in test [4] it was 4 µg/mL (≈ 5.81 µM); in test [5] (Staphylococcus aureus FDA209P, agar dilution, Mueller-Hinton agar, 37° C., 18 hours), 12.5 µg/mL (≈ 18.1 µM); in [7] it was 8 µg/mL (≈ 11.6 µM). Also, the MIC was > 100 µg/mL in test [8]; 8 µg/mL (≈ 11.6 µM) in test [9] (Bacillus subtilis); 8 µg/mL (≈ 11.6 µM) in test [10]; 1.56 µg/mL (≈ 2.27 µM) in test [12]; 100 µg/mL (≈ 145 µM) in test [13] (Staphylococcus aureus, MRSA, 18 h); 16 µg/mL (≈ 23.2 µM) in test [14] (S223, Streptococcus pneumoniae S-223, agar dilution, Mueller-Hinton agar, 37° C., 18 hours). Also, the MIC was 64 µg/mL (≈ 92.9 µM) in test [15] (Bacillus subtilis); 2 µg/mL (≈ 2.9 µM) in test [16]; 1.56 µg/mL (≈ 2.27 µM) in [17]; 128 µg/mL (≈ 186 µM) in test [19] (Streptococcus pneumoniae, CR2, 18 h). Besides, the “antibacterial activity (in words)” value in [5] (Staphylococcus aureus FDA209 strain, WecA or ortholog not essential for growth) is recorded as “no antibacterial activity”; in [13] (Staph. aureus MRSA No. 5 strain, WecA or ortholog not essential for growth) it was “no antibacterial activity”; in [14] (Streptococcus pneumoniae S-223 strain, has no WecA or ortholog) it was “no antibacterial activity”; in test [19] (Str. pneumoniae CR-2 strain, has no WecA or ortholog), “no antibacterial activity”. Also, the “incorporation into bacterial cells of glycerol (synthesis of teichoic acid)” value in test [6] is on record as “inhibited”. This compound gave a half-maximal inhibitory concentration (IC50) in test [11] of 6.39 nM. In addition, the “enzymatic activity of TagO (inhibition)” value in test [18] is “the most strongly”.

As for `CN[C@H](CC(C)C)C(=O)N[C@H]1C(=O)N[C@@H](CC(N)=O)C(=O)N[C@H]2C(=O)N[C@H]3C(=O)N[C@H](C(=O)N[C@H](C(=O)O)c4cc(O)cc(O)c4-c4cc3ccc4O)[C@H](O)c3ccc(c(Cl)c3)Oc3cc2cc(c3O[C@@H]2O[C@H](CO)[C@@H](O)[C@H](O)[C@H]2O[C@H]2C[C@](C)(N)[C@H](O)[C@H](C)O2)Oc2ccc(cc2Cl)[C@H]1O` [vancomycin, reference compound], the MIC was found to be 0.25 µg/mL (≈ 0.173 µM) in test [1] (Bacillus subtilis, 16 h); 0.25 µg/mL (≈ 0.173 µM) in [2] (Bacillus subtilis, 16 h); 0.5 µg/mL (≈ 0.345 µM) in [3] (Bacillus subtilis, 168/PHYCATA); 0.5 µg/mL (≈ 0.345 µM) in test [9] (Bacillus subtilis); 1 µg/mL (≈ 0.69 µM) in [15] (Bacillus subtilis).

On to tunicamycin [reference compound], for which the MIC came to 4 µg/mL in [1] (B. subtilis CPZB-resistant strain, microbroth dilution, LB medium, 37° C., 16 hours); 0.25 µg/mL in [2] (B. subtilis 168 (parent strain), microbroth dilution, LB medium, 37° C., 16 hours); 1 µg/mL in test [3] (B. subtilis 168/pHYcatA (control strain), microbroth dilution, LB medium); 1 µg/mL in test [9] (B. subtilis 168/pHYcat-mraY (mraY highly expressing), microbroth dilution, LB medium); 16 µg/mL in test [15] (B. subtilis 168/pHYcat-tagO (tagO highly expressing), microbroth dilution, LB medium).
